According to PMC10829540, “Natural transaminase fusions for biocatalysis” (RSC Advances, 2024):
One block for each molecule: values may come before it.

Experiments:
[1] = molecular target: T1, PpKTFusion (Pseudomonas putida, UniProt Q88J67); assay: HPLC conversion of […] to […], non-linear regression to substrate inhibition equation; assay type: biochemical; settings: apparent, amine donor L-glutamate, 1.0 mM PLP, HEPES pH 7.7, 10% DMSO, 30 °C (conditions of Fig. 7F)
T1 construct: gene PP_2782; full-length fusion (N-terminal TAm 1-526, linker 527-562, C-terminal reductase 563-959); N-terminal His6-tag, pET-28a(+), E. coli
T1 sequence (Q88J67 1-959): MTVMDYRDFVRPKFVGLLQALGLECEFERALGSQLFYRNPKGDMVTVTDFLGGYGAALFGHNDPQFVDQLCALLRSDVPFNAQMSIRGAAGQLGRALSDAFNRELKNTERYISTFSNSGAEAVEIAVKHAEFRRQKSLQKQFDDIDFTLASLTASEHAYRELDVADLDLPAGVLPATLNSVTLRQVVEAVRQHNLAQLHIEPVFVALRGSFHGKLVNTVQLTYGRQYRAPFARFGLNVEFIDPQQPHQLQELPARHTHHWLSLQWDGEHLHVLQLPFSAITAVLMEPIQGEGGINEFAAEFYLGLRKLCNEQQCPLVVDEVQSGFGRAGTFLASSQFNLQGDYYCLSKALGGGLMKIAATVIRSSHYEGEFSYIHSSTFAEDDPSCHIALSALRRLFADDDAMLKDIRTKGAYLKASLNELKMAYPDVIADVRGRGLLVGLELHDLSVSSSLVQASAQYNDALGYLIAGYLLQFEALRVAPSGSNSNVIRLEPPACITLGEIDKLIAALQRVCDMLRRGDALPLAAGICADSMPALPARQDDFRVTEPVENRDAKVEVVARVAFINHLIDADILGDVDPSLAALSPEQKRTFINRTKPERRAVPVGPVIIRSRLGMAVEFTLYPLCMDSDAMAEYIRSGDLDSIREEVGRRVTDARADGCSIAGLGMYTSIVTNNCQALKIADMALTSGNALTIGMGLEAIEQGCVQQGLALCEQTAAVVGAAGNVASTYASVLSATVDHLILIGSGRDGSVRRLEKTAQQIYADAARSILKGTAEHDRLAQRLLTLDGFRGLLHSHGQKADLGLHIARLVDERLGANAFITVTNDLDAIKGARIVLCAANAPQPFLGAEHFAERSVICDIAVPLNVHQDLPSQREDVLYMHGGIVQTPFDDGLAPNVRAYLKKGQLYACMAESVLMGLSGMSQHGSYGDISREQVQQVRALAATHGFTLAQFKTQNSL

[2] = molecular target: T2, TfFusion (Thermincola carboxydiphila, UniProt A0A0L6W1G2); assay: as above; assay type: biochemical; settings: apparent, amine donor L-glutamate, 1.0 mM PLP, HEPES pH 7.7, 10% DMSO, 50 °C (conditions of Fig. 7F)
T2 construct: gene Tfer_2018; full-length fusion; N-terminal His6-tag, pET-28a(+), E. coli

[3] = molecular target: T3, PpKTTAm (Pseudomonas putida, UniProt Q88J67); assay: as above; assay type: biochemical; settings: apparent, amine donor L-glutamate, 1.0 mM PLP, HEPES pH 7.7, 10% DMSO, 30 °C (conditions of Fig. 7F)
T3 construct: gene PP_2782; truncated to N-terminal TAm domain (assigned residues 1-526); N-terminal His6-tag, pET-28a(+), E. coli
T3 sequence (Q88J67 1-526): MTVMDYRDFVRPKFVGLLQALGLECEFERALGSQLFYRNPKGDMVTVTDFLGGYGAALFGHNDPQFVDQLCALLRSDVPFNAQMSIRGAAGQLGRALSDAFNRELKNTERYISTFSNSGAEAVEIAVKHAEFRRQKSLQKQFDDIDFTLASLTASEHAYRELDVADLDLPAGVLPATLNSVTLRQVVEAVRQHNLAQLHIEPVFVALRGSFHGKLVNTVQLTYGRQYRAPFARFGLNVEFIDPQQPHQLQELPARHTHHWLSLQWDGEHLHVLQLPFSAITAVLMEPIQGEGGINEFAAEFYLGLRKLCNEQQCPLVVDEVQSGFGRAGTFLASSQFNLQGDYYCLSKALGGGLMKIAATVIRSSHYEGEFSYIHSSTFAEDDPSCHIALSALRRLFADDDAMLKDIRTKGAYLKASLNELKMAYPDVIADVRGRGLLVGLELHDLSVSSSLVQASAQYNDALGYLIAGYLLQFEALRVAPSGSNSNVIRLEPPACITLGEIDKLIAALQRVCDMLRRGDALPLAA

[4] = molecular target: T4, TfTAm (Thermincola carboxydiphila, UniProt A0A0L6W1G2); assay: HPLC conversion of […] to […], non-linear regression; assay type: biochemical; settings: apparent; amine acceptor 3-phenylpropionaldehyde (10 mM), 1.0 mM PLP, HEPES pH 7.7, 10% DMSO, 50 °C (conditions of Fig. 7E); read-out: K ^app m
T4 construct: gene Tfer_2018; truncated to N-terminal TAm domain (borders only in ESI); N-terminal His6-tag, pET-28a(+), E. coli

[5] = substrate: N[C@@H](CCC(=O)O)C(=O)O; assay: purified protein; assay type: biochemical, Thermincola carboxydiphila; settings: apparent, amine acceptor 3-phenylpropionaldehyde (10 mM), 1.0 mM PLP, HEPES pH 7.7, 10% DMSO, 50 °C (conditions of Fig. 7E)
[6] = substrate: O=CCCc1ccccc1; assay: purified protein; assay type: biochemical, Thermincola carboxydiphila; settings: apparent, amine donor L-glutamate, 1.0 mM PLP, HEPES pH 7.7, 10% DMSO, 50 °C (conditions of Fig. 7F)

Molecule: O=CCCc1ccccc1 [compound 13, 3-phenylpropionaldehyde]
K ^app i [1]: 3.37 µM | K ^app i [2]: 52.92 µM | K ^app i [3]: 5.13 µM

Km [4]: 9.57 mM
Molecule: N[C@@H](CCC(=O)O)C(=O)O [compound 36, L-glutamate]

B1: TfFusion (Thermincola carboxydiphila) (protein)
chain: MKFSSLNPTMDKLFECFKLDVAYVKGEGTYLYDQAGNKYLDFIAQYGAVPFGYNPPELVAAAKKYFDLSLPSMVQPSIPVKAVELAEMLLQLAPGEMAQATFCQSGAEAVEVAIKLARSTTGKPKILSTKNSFHGKTMGALSATGRDVYQKPFFTPVPGFEHIPFGDLDMLENKMRTEGKQIAAFLVEPIQGEGGIIVPPEGYLKNAEIICRKYGVLLAVDEIQTGLGRTGELFACDREGVEPDILLLSKALGGGLVPLGVCLSTRQAWNEEFGRLHSSTFANNNFTCAIGLAVLNKLLENGRQLINNAKSAGNYLLKNLEDINRQYPGVIKEIRGRGLMLGLEFNEFDGSESFSMKYLAEQGGFSPLLAGYLLNVHKVRVAPFLNNPMTLRLQPSLTVATVEIDRALHGLERVVKALYYQDHCELYSYIIGKEPGPIRDFRSEKKAVTGSELLPEEKPTEKFAFLIHYPSSEDVIKNNPSFKKASKDILEKLIDWEASLDAEPEVIVHLPAIKSKAGKIAEGWLIGIPYSGRHMMEMPRKDAVKVLVTALDKAKALGARIVGLGAYTSVVSRGGSDLQGKGIAVTSGNSYTIATAFDALIEGARLMGIDPAESTGCVIGATGSIGRVCAILLAEEIDKLVLVGNPEKEKTSLRRMEQLADEIYTRAFREILAYKGKVAKIKGIAKWLKGFLDRKRKDDPEVWNKLLTALENQGFSINGYIHENLAAKGKYSNPPVKITVNIKQALLQSDLIISASNSTNHLIGPGHLKPGSVICDVARPPDVSEAVLEQRKDVLVIEGGLVQYPDDICFGQNMGYEPGVNMACLSETMLLALEGTYRDFSIGLKIPVENVYYLRELAQRHGFKLATPWNKNGGVTPEVARMIKEAALKNENVEKIKTPKSS
notes: full-length fusion; N-terminal His6-tag, pET-28a(+), E. coli
Km [5]: 16.44 mM | kcat [5]: 0.2672 s⁻¹ | Km [6]: 50.61 mM | kcat [6]: 1.171 s⁻¹
